From patent US20230148605A1, “APPLICATION OF GERANIOL IN PREPARATION OF FORMULATION FOR PROMOTING SYNTHESIS OF PSEUDOMONAS AERUGINOSA 3OC12-HSL SIGNAL MOLECULES” (priority 2021, published 2023) come the findings set out here.

Holding throughout (assay type): cell-based
Assay [1] deals with key genes in the Pseudomonas aeruginosa quorum sensing system and virulent genes regulated thereby. Kind of assay: Influence of geraniol on expression of key quorum sensing genes and regulated virulent genes (real-time fluorescent quantitative PCR). The note with it: 1.25 μL/mL geraniol, 5 h, PAO1. As to the method: The PAO1 bacterial suspension in a logarithmic growth phase was added to 50 mL sterile LB liquid medium to make a final concentration of the bacterial solution reach 10^6 CFU/mL. Geraniol was added to make a final concentration become 0 μL/mL (three biological replicates in a control group were respectively named A1, A2 and A3) and 1.25 μL/mL (three biological replicates in an experimental group were respectively named B1, B2 and B3); the respective groups were cultured at 37° C. and 180 rpm for 5 h, centrifuged to collect Bacteria, and then snap-frozen at −80° C. for later use.
Total bacterial RNA was extracted with a kit of Trizol (Thermo Company). After extraction, purity of RNA was detected with an ultra-micro spectrophotometer (Implen, Munich, Germany). An A260/A280 value of each RNA sample should be between 1.8 and 2.0. Reverse transcription and real-time fluorescent quantitative PCR amplification were performed with the PrimeScript RT Master Mix kit (Takara, Dalian, China) and the ETC 811 PCR instrument (Beijing Eastwin Life Sciences, Inc.). A q-PCR reaction system adopted Takara's SYBR Premix Ex TaqII (Tli RNaseH Plus) (Code No. RR820A); the PCR program was pre-denaturation at 95° C. for 30 s; denaturation at 95° C. for 5 s, annealing at 60° C. for 34 s, 40 loops; according to the 10 gene sequences already published on the GenBank website, primers for q-PCR were designed with Primer Premier 5.0 software, and meanwhile, the 16SrRNA gene was used as an internal reference gene.
Table 1 Genes and primer sequences thereof used in real-time fluorescent quantitative PCR

Assay [2] deals with Pseudomonas aeruginosa PAO1. Kind of assay: Influence of geraniol on Pseudomonas aeruginosa PAO1 growth (growth curve, OD600, Bioscreen C). As to the method: An LB medium and geraniol were respectively added to test tubes, joined with the PAO1 bacterial suspension in the exponential growth phase, to make total volumes all reach 10 mL, so that PAO1 bacterial concentrations were all 10^6 CFU/mL, and concentrations of geraniol were respectively 0 μL/mL (control), 0.313 μL/mL, 0.625 μL/mL, 1.25 μL/mL, and 2.5 μL/mL. Samples from the experimental groups were respectively added to a honeycomb culture plate dedicated to an automatic growth curve analyzer (Bioscreen C), which has each well added with 350 μL culture medium; and each experimental group has three parallel experiments. The honeycomb culture plate was placed in the automatic growth curve analyzer, for shaking culture at 37° C. for 3 days, with OD600 measured every hour. Taking OD600 as an ordinate and culture time as an abscissa, a growth curve of PAO1 under an action of geraniol was drawn to study influence of geraniol on PAO1 growth.

The test system of assay [3] is key genes in the Pseudomonas aeruginosa quorum sensing system and virulent genes regulated thereby. Kind of assay: Influence of geraniol on expression of key quorum sensing genes and regulated virulent genes (real-time fluorescent quantitative PCR). The following applies: low concentration of geraniol (0.313 to 2.5 μL/mL), PAO1; concluded from the experiments.

Structures are written as SMILES.

As to `CC(C)=CCC/C(C)=C/CO` [geraniol, Geraniol], in assay [1], the “expression level of pelF” value is listed as “not significantly down-regulated”, the “expression level of pslB” value was “not significantly down-regulated”, the “expression level of the signal molecule synthase encoding gene rhl (rhl system)” value is given as “does not change significantly” and the “expression level of toxA” value was “not significantly down-regulated”. Besides, in assay [1], the “expression level of virulent gene chiC” value is “significantly down-regulated”, the “expression level of virulent gene lasA” value is “significantly down-regulated”, the “expression level of virulent gene lasB” value is reported as “significantly down-regulated” and the “expression level of virulent gene phzM” value was “significantly down-regulated”. Besides, in assay [1], the “expression of lasI (signal molecule synthase gene, las system)” value is given as “up-regulated”; the “expression of lasR (signal molecule receptor protein gene, las system)” value is “down-regulated”; the “expression of pqsA (signal molecule synthase gene, pqs system)” value is “down-regulated”; the “expression of pqsR (signal molecule receptor protein gene, pqs system)” value is recorded as “up-regulated”. Besides, in assay [1], the “expression of rhlR (signal molecule receptor protein gene, rhl system)” value was “down-regulated”. In addition, the “growth of PAO1 cells (OD600 growth curve)” value in assay [2] (geraniol 0.313, 0.625, 1.25 and 2.5 μL/mL, LB, 37° C., 3 days) is listed as “slightly inhibit growth”. Also, in assay [2] (geraniol 0.313 to 2.5 μL/mL), the “concentration dependence of effect on growth of PAO1 cells” value is reported as “concentration-dependent inhibitory effect”. The “antibacterial activity compared with other geraniol groups” value in assay [2] (geraniol 2.5 μL/mL) is “highest antibacterial activity”. For the same compound, the “bacterial proliferation rate in the logarithmic growth phase” value in assay [2] (geraniol 2.5 μL/mL, versus other groups) was “significantly lower than other groups”. The “synthesis of 3OC12-HSL signal molecules” value in assay [3] is listed as “significantly promote synthesis”.
